According to patent publication US7566712B2, “Biaryl piperazinyl-pyridine analogues” (Neurogen Corporation, priority 2003, dated 2009):

biological target: T1, human capsaicin receptor (Homo sapiens, UniProt Q8NER1); test: Calcium mobilization assay, determination of antagonist activity (Example 6); format: cell-based; settings: Table II; determined as described in Example 6 (antagonist activity); "*" = 1 micromolar or less
T1 construct: pBK-CMV expression construct encoding the full length human capsaicin receptor; expressed in transfected cells
Summary of the method: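 HEK293 clonal lines stably expressing full-length human capsaicin receptor, loaded with Fluo-3 AM in KRH buffer pH 7.4, 1–2 h at 37 °C. Compounds (1–5 μM final) preincubated 0.5–6 h at room temperature, then capsaicin at its EC50 added. FLIPR/Fluoroskan calcium signal; IC50 as 50% decrease of capsaicin response.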

T1 sequence (Q8NER1 whole entry): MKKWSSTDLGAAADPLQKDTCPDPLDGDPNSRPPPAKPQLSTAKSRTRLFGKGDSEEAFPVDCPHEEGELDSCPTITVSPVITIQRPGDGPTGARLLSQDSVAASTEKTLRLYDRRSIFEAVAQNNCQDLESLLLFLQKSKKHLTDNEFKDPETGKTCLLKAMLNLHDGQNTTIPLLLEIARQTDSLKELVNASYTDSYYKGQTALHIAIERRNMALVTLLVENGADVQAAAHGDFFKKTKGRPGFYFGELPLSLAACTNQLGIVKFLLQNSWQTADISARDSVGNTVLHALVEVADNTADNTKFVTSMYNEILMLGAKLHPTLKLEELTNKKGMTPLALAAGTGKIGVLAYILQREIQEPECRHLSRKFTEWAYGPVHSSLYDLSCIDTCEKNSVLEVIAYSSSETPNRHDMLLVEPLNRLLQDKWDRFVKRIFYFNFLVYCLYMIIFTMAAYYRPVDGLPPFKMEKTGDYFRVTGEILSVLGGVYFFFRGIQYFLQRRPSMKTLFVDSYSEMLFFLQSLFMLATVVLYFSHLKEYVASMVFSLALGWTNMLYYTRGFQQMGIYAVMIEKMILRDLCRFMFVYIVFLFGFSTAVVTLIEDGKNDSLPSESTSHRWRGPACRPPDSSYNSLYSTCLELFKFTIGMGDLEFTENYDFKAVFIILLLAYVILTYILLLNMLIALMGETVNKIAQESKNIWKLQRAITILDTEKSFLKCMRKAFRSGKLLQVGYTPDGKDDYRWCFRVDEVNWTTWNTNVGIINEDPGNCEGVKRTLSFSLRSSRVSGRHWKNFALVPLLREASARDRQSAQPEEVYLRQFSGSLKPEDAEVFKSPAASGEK

Row | Compound | IC50
1 | CC1CCCN1c1nc(-c2ccc3c(c2)CN(C)CC3(C)C)cc(N2CCN(c3ncccc3C(F)(F)F)CC2)n1 (centres unmarked) [Example 836, 2,4,4-trimethyl-7-(2-(2-methylpyrrolidin-1-yl)-6-{4-[3-(trifluoromethyl)pyridin-2-yl]piperazin-1-yl}pyrimidin-4-yl)-1,2,3,4-tetrahydroisoquinoline] | ≤ 1000 nM
2 | C[C@@H]1CN(c2ncccc2Cl)CCN1c1cc(-c2cncc(Cl)c2)nc(N2CCOCC2)n1 [Example 837, 4-{4-(5-chloropyridin-3-yl)-6-[(2R)-4-(3-chloropyridin-2-yl)-2-methylpiperazin-1-yl]pyrimidin-2-yl}morpholine] | ≤ 1000 nM
3 | CCCN1CCN(c2nc(-c3cncc(Cl)c3)cc(N3CCN(c4ncccc4Cl)C[C@H]3C)n2)CC1 [Example 838, 4-(5-chloropyridin-3-yl)-6-[(2R)-4-(3-chloropyridin-2-yl)-2-methylpiperazin-1-yl]-2-(4-propylpiperazin-1-yl)pyrimidine] | ≤ 1000 nM
4 | COC[C@@H]1CCCN1c1nc(-c2ccc(F)cc2)cc(N2CCN(c3ncccc3Cl)C[C@H]2C)n1 [Example 843, 4-[(2R)-4-(3-chloropyridin-2-yl)-2-methylpiperazin-1-yl]-6-(4-fluorophenyl)-2-[(2S)-2-(methoxymethyl)pyrrolidin-1-yl]pyrimidine] | ≤ 1000 nM
5 | C[C@@H]1CN(c2ncccc2Cl)CCN1c1cc(-c2ccc(F)cc2)nc(N2CCCCC2)n1 [Example 844, 4-[(2R)-4-(3-chloropyridin-2-yl)-2-methylpiperazin-1-yl]-6-(4-fluorophenyl)-2-piperidin-1-ylpyrimidine] | ≤ 1000 nM
6 | C[C@@H]1CN(c2ncccc2Cl)CCN1c1cc(-c2ccc(F)cc2)nc(N2CCOCC2)n1 [Example 845, 4-[4-[(2R)-4-(3-chloropyridin-2-yl)-2-methylpiperazin-1-yl]-6-(4-fluorophenyl)pyrimidin-2-yl]morpholine] | ≤ 1000 nM
7 | CC(=O)c1nc(-c2ccc(F)c(C(C)=O)c2)cc(N2CCN(c3ncccc3C(F)(F)F)CC2)n1 [Example 846, 1-(4-(3-acetyl-4-fluorophenyl)-6-{4-[3-(trifluoromethyl)pyridin-2-yl]piperazin-1-yl}pyrimidin-2-yl)ethanone] | ≤ 1000 nM
8 | C[C@@H]1CN(c2ncccc2Cl)CCN1c1cc(-c2ccc(C#N)cc2)nc(S(C)(=O)=O)n1 [Example 847, 4-[6-[(2R)-4-(3-chloropyridin-2-yl)-2-methylpiperazin-1-yl]-2-(methylsulfonyi)pyrimidin-4-yl]benzonitrile] | ≤ 1000 nM
9 | O=C(O)CCc1cccc(-c2cc(N3CCN(c4ncccc4C(F)(F)F)CC3)nc(N3CCOCC3)n2)c1 [Example 848, 3-(3-(2-morpholin-4-yl-6-{4-[3-(trifluoromethyl)pyridin-2-yl]piperazin-1-yl}pyrimidin-4-yl)phenyl]propanoic acid] | ≤ 1000 nM
10 | O=C(O)CCc1ccc(-c2cc(N3CCN(c4ncccc4C(F)(F)F)CC3)nc(N3CCOCC3)n2)cc1 [Example 849, 3-[4-(2-morpholin-4-yl-6-{4-[3-(trifluorormethyl)pyridin-2-yl]piperazin-1-yl}pyrimidin-4-yl)phenyl]propanoic acid] | ≤ 1000 nM

Further lines, results first:

Row | IC50 | Compound
11 | ≤ 1000 nM | CC1CCCN1c1nc(-c2ccc(F)c(F)c2)cc(N2CCN(c3nccnc3Cl)C[C@H]2C)n1 (some centres unmarked) [Example 821, 4-[4-(3-chloropyrazin-2-yl)-2-methylpiperazin-1-yl]-6-(3,4-difluorophenyl)-2-(2-methylpyrrolidin-1-yl)pyrimidine]
12 | ≤ 1000 nM | C[C@@H]1CN(c2nccnc2Cl)CCN1c1cc(-c2ccc(F)c(F)c2)nc(N2CCOCC2)n1 [Example 822, 4-[4-[(2R)-4-(3-chloropyrazin-2-yl)-2-methylpiperazin-1-yl]-6-(3,4-difluorophenyl)pyrimidin-2-yl]morpholine]
13 | ≤ 1000 nM | CC1CCCN1c1nc(-c2ccc(F)c(Cl)c2)cc(N2CCN(c3ncc(C(=O)N(C)C)cc3Cl)CC2)n1 (centres unmarked) [Example 824, 5-chloro-6-{4-[6-(3-chloro-4-fluorophenyl)-2-(2-methylpyrrolidin-1-yl)pyrimidin-4-yl]piperazin-1-yl}-N,N-dimethylnicotinamide]
14 | ≤ 1000 nM | CNC(=O)c1cnc(N2CCN(c3cc(-c4ccc(F)c(Cl)c4)nc(N4CCCC4C)n3)CC2)c(Cl)c1 (centres unmarked) [Example 825, 5-chloro-6-{4-[6-(3-chloro-4-fluorophenyl)-2-(2-methylpyrrolidin-1-yl)pyrimidin-4-yl]piperazin-1-yl}-N-methylnicotinamide]
15 | ≤ 1000 nM | C[C@@H]1CN(c2ccncc2Cl)CCN1c1cc(-c2ccc(F)c(F)c2)nc(Cl)n1 [Example 826, 2-chloro-4-[(2R)-4-(3-chloropyridin-4-yl)-2-methylpiperazin-1-yl]-6-(3,4-difluorophenyl)pyrimidine]
16 | ≤ 1000 nM | CC1CCCN1c1nc(-c2ccc(F)c(F)c2)cc(N2CCN(c3ccncc3Cl)C[C@H]2C)n1 (some centres unmarked) [Example 828, 4-[4-(3-chloropyridin-4-yl)-2-methylpiperazin-1-yl]-6-(3,4-difluorophenyl)-2-(2-methylpyrrolidin-1-yl)pyrimidine]
17 | ≤ 1000 nM | C[C@@H]1CN(c2ccncc2Cl)CCN1c1cc(-c2ccc(F)c(F)c2)nc(N2CCCC2)n1 [Example 829, 4-[(2R)-4-(3-chloropyridin-4-yl)-2-methylpiperazin-1-yl]-6-(3,4-difluorophenyl)-2-pyrrolidin-1-ylpyrimidine]
18 | ≤ 1000 nM | Fc1ccc(-c2cc(N3CCN(c4ncccc4C(F)(F)F)CC3)nc(-c3ccccn3)n2)cc1Cl [Example 830, 4-(3-chloro-4-fluorophenyl)-2-pyridin-2-yl-6-{4-[3-(trifluoromethyl)pyridin-2-yl]piperazin-1-yl}pyrimidine]
19 | ≤ 1000 nM | CCCN1CC[C@H](N(C)c2nc(-c3ccc(F)c(C)c3)cc(N3CCN(c4ncccc4C(F)(F)F)CC3)n2)C1 [Example 831, 4-(4-fluoro-3-methylphenyl)-N-methyl-N-[(3S)-1-propylpyrrolidin-3-yl]-6-{4-[3-(trifluoromethyl)pyridin-2-yl]piperazin-1-yl}pyrimidin-2-amine]
20 | ≤ 1000 nM | O=C(O)C1CCCCN1c1nc(-c2ccc(F)c(Cl)c2)cc(N2CCN(c3ncccc3C(F)(F)F)CC2)n1 (centres unmarked) [Example 832, 1-(4-(3-chloro-4-fluorophenyl)-6-{4-[3-(trifluoromethyl)pyridin-2-yl]piperazin-1-yl}pyrimidin-2-yl)piperidine-2-carboxylic acid]
21 | ≤ 1000 nM | C[C@@H]1CN(c2ncccc2Cl)CCN1c1cc(-c2ccc(Cl)c(F)c2)nc(N2CCCC2)n1 [Example 833, 4-(4-chloro-3-fluorophenyl)-6-[(2R)-4-(3-chloropyridin-2-yl)-2-methylpiperazin-1-yl]-2-pyrrolidin-1-ylpyrimidine]
22 | ≤ 1000 nM | CC1CCCN1c1nc(-c2ccc(Cl)c(F)c2)cc(N2CCN(c3ncccc3Cl)C[C@H]2C)n1 (some centres unmarked) [Example 834, 4-(4-chloro-3-fluorophenyl)-6-[4-(3-chloropyridin-2-yl)-2-methylpiperazin-1-yl]-2-(2-methylpyrrolidin-1-yl)pyrimidine]
23 | ≤ 1000 nM | C[C@@H]1CN(c2ncccc2Cl)CCN1c1cc(-c2ccc(Cl)c(F)c2)nc(N2CCOCC2)n1 [Example 835, 4-{4-(4-chloro-3-fluorophenyl)-6-[(2R)-4-(3-chloropyridin-2-yl)-2-methylpiperazin-1-yl]pyrimidin-2-yl}morpholine]
